Here are results for 1 molecule from article PMC5218480 (PLoS ONE, 2017).

Structures are written as SMILES.

This experiment relates to MV-4-11 cells. Kind of experiment: Gene expression microarray analysis (Affymetrix PrimeView) and GSEA. It is filed as cell-based, human. Also on record: RFU PODN (11730768_x_at) / Fold change /veh PODN (11730768_x_at) / RFU LINC00158 (11744669_a_at) / Fold change /veh LINC00158 (11744669_a_at) / RFU DUSP10 (11751237_a_at) / Fold change /veh DUSP10 (11751237_a_at) / RFU ID3 (11757404_x_at) / Fold change /veh ID3 (11757404_x_at) / RFU PLEKHG5 (11737974_s_at) / Fold change /veh PLEKHG5 (11737974_s_at) / RFU LRRC4B (11730491_at) / Fold change /veh LRRC4B (11730491_at) / RFU GIMAP4 (11747438_a_at) / Fold change /veh GIMAP4 (11747438_a_at) / RFU KRT8 (11758183_x_at) / Fold change /veh KRT8 (11758183_x_at) / RFU CNN1 (11734310_a_at) / Fold change /veh CNN1 (11734310_a_at) / RFU VPS37D (11726825_at) / Fold change /veh VPS37D (11726825_at) / RFU C10orf10 (11716522_x_at) / Fold change /veh C10orf10 (11716522_x_at) / RFU KIR2DL2 /// KIR2DL4 /// KIR2DL5A /// KIR2DL5B /// KIR2DS1 /// KIR2DS2 /// KIR2DS3 /// KIR2DS4 /// KIR3DL3 /// KIR3DL3 /// KIR3DS1 (11738374_at) / Fold change /veh KIR2DL2 /// KIR2DL4 /// KIR2DL5A /// KIR2DL5B /// KIR2DS1 /// KIR2DS2 /// KIR2DS3 /// KIR2DS4 /// KIR3DL3 /// KIR3DL3 /// KIR3DS1 (11738374_at) / RFU C1QL1 (11718748_at) / Fold change /veh C1QL1 (11718748_at) / RFU TMPRSS4 (11747572_a_at) / Fold change /veh TMPRSS4 (11747572_a_at) / RFU HAMP (11756126_x_at) / Fold change /veh HAMP (11756126_x_at) / RFU RNFT2 (11725882_a_at) / Fold change /veh RNFT2 (11725882_a_at) / RFU NR4A2 (11747474_a_at) / Fold change /veh NR4A2 (11747474_a_at) / RFU ABCC12 (11746883_a_at) / Fold change /veh ABCC12 (11746883_a_at) / RFU TMEM136 (11760407_x_at) / Fold change /veh TMEM136 (11760407_x_at) / RFU CLDN22 /// WWC2 (11732394_at) / Fold change /veh CLDN22 /// WWC2 (11732394_at) / RFU HLA-DPB1 (11760878_x_at) / Fold change /veh HLA-DPB1 (11760878_x_at) / RFU SPINT1 (11716480_a_at) / Fold change /veh SPINT1 (11716480_a_at) / RFU GAP43 (11754022_s_at) / Fold change /veh GAP43 (11754022_s_at) / RFU A4GNT (11735810_at) / Fold change /veh A4GNT (11735810_at) / RFU PRB3 (11715151_x_at) / Fold change /veh PRB3 (11715151_x_at) / RFU TUBB4B (11761932_at) / Fold change /veh TUBB4B (11761932_at) / RFU CAPN14 (11732068_a_at) / Fold change /veh CAPN14 (11732068_a_at) / RFU TMCC2 (11721928_a_at) / Fold change /veh TMCC2 (11721928_a_at) / RFU IRGQ (11745062_a_at) / Fold change /veh IRGQ (11745062_a_at) / RFU FAM174B (11720279_a_at) / Fold change /veh FAM174B (11720279_a_at) / RFU TMPRSS4 (11748680_a_at) / Fold change /veh TMPRSS4 (11748680_a_at) / RFU FAM212B (11763350_a_at) / Fold change /veh FAM212B (11763350_a_at) / RFU PLEKHG5 (11743358_a_at) / Fold change /veh PLEKHG5 (11743358_a_at) / RFU ZSCAN30 (11745921_a_at) / Fold change /veh ZSCAN30 (11745921_a_at) / RFU CMKLR1 (11741424_a_at) / Fold change /veh CMKLR1 (11741424_a_at) / RFU LOC101060620 /// MAPK8IP1 (11723275_at) / Fold change /veh LOC101060620 /// MAPK8IP1 (11723275_at) / RFU SPTSSB (11747773_x_at) / Fold change /veh SPTSSB (11747773_x_at) / RFU PRSS12 (11739890_at) / Fold change /veh PRSS12 (11739890_at) / RFU BIN1 (11741810_x_at) / Fold change /veh BIN1 (11741810_x_at) / RFU WNT11 (11732464_a_at) / Fold change /veh WNT11 (11732464_a_at) / RFU C10orf10 (11716521_a_at) / Fold change /veh C10orf10 (11716521_a_at) / RFU C5orf56 (11738089_at) / Fold change /veh C5orf56 (11738089_at) / RFU CYB561 (11721691_x_at) / Fold change /veh CYB561 (11721691_x_at) / RFU ANKRD19P (11752326_a_at) / Fold change /veh ANKRD19P (11752326_a_at) / RFU OR2T12 /// OR2T33 /// OR2T8 (11738714_s_at) / Fold change /veh OR2T12 /// OR2T33 /// OR2T8 (11738714_s_at) / RFU VCAN (11748164_a_at) / Fold change /veh VCAN (11748164_a_at) / RFU JSRP1 (11732532_at) / Fold change /veh JSRP1 (11732532_at) / RFU KRTAP10-11 (11738290_x_at) / Fold change /veh KRTAP10-11 (11738290_x_at) / RFU MYO3A (11730013_a_at) / Fold change /veh MYO3A (11730013_a_at) / RFU EBF3 (11725865_a_at) / Fold change /veh EBF3 (11725865_a_at) / RFU CAMK2N1 (11719241_x_at) / Fold change /veh CAMK2N1 (11719241_x_at) / RFU C5orf56 (11738088_a_at) / Fold change /veh C5orf56 (11738088_a_at) / RFU OLFML3 (11715873_a_at) / Fold change /veh OLFML3 (11715873_a_at) / RFU LOC100653217 /// NTM (11731650_a_at) / Fold change /veh LOC100653217 /// NTM (11731650_a_at) / RFU MAPK11 (11762145_a_at) / Fold change /veh MAPK11 (11762145_a_at) / RFU FIZ1 (11724087_x_at) / Fold change /veh FIZ1 (11724087_x_at) / RFU OASL (11726364_x_at) / Fold change /veh OASL (11726364_x_at) / RFU SOX15 (11748057_x_at) / Fold change /veh SOX15 (11748057_x_at) / RFU CD79A (11719716_a_at) / Fold change /veh CD79A (11719716_a_at) / RFU HIST1H1D (11736915_at) / Fold change /veh HIST1H1D (11736915_at) / RFU CASKIN2 (11723855_a_at) / Fold change /veh CASKIN2 (11723855_a_at) / RFU LOC730098 (11760151_x_at) / Fold change /veh LOC730098 (11760151_x_at) / RFU OR4N2 (11742367_at) / Fold change /veh OR4N2 (11742367_at) / RFU PRRT2 (11749266_a_at) / Fold change /veh PRRT2 (11749266_a_at) / RFU SNX32 (11753110_a_at) / Fold change /veh SNX32 (11753110_a_at) / RFU CDHR5 (11726645_a_at) / Fold change /veh CDHR5 (11726645_a_at) / RFU RCAN1 (11760418_a_at) / Fold change /veh RCAN1 (11760418_a_at) / RFU FAM167A (11723789_a_at) / Fold change /veh FAM167A (11723789_a_at) / RFU FAM26E (11764081_at) / Fold change /veh FAM26E (11764081_at) / RFU ISYNA1 (11749810_s_at) / Fold change /veh ISYNA1 (11749810_s_at) / RFU ACY1 (11761880_at) / Fold change /veh ACY1 (11761880_at) / RFU 11764098_at / Fold change /veh 11764098_at / RFU SAMD14 (11745864_x_at) / Fold change /veh SAMD14 (11745864_x_at) / RFU NPB (11741838_a_at) / Fold change /veh NPB (11741838_a_at) / RFU TMPRSS6 (11731388_a_at) / Fold change /veh TMPRSS6 (11731388_a_at) / RFU KRTAP10-2 (11738614_at) / Fold change /veh KRTAP10-2 (11738614_at) / RFU ARHGAP8 /// PRR5-ARHGAP8 (11727945_x_at) / Fold change /veh ARHGAP8 /// PRR5-ARHGAP8 (11727945_x_at) / RFU KRTAP5-7 /// NADSYN1 (11734609_at) / Fold change /veh KRTAP5-7 /// NADSYN1 (11734609_at) / RFU RASL12 (11751679_a_at) / Fold change /veh RASL12 (11751679_a_at) / RFU CDKN2B (11736163_a_at) / Fold change /veh CDKN2B (11736163_a_at) / RFU PRF1 (11729649_at) / Fold change /veh PRF1 (11729649_at) / RFU, ZNF638 /// ZNF638-IT1 / Fold change vs veh, ZNF638 /// ZNF638-IT1 / RFU, PANK3 / Fold change vs veh, PANK3 / RFU, SH3YL1 / Fold change vs veh, SH3YL1 / RFU, ZEB2 / Fold change vs veh, ZEB2 / RFU, NRIP1 / Fold change vs veh, NRIP1 / RFU, PTTG1IP / Fold change vs veh, PTTG1IP / RFU, CAPN2 / Fold change vs veh, CAPN2 / RFU, MED14 / Fold change vs veh, MED14 / RFU, SNORA58 / Fold change vs veh, SNORA58 / RFU, C1orf63 / Fold change vs veh, C1orf63 / RFU, LRRFIP1 / Fold change vs veh, LRRFIP1 / RFU, NDUFAF7 / Fold change vs veh, NDUFAF7 / RFU, SLC12A2 / Fold change vs veh, SLC12A2 / RFU, IBTK / Fold change vs veh, IBTK / RFU, ESF1 / Fold change vs veh, ESF1 / Fold change vs veh, TMEM50B / RFU, TAOK1 / Fold change vs veh, TAOK1 / RFU, ACBD3 / Fold change vs veh, ACBD3 / RFU, TMA16 / Fold change vs veh, TMA16 / RFU, RWDD3 / Fold change vs veh, RWDD3 / RFU, BCAT1 / Fold change vs veh, BCAT1 / RFU, EDEM3 / Fold change vs veh, EDEM3 / RFU, TMEM33 / Fold change vs veh, TMEM33 / RFU, WDR75 / Fold change vs veh, WDR75 / RFU, AHCTF1 / Fold change vs veh, AHCTF1 / RFU, TFRC / Fold change vs veh, TFRC / RFU, ZDHHC17 / Fold change vs veh, ZDHHC17 / RFU, NOM1 / Fold change vs veh, NOM1 / RFU, ARL8B / Fold change vs veh, ARL8B / RFU, ZBTB11 / Fold change vs veh, ZBTB11 / RFU, TAMM41 / Fold change vs veh, TAMM41 / RFU, KIAA1704 /// LOC100996395 / Fold change vs veh, KIAA1704 /// LOC100996395 / RFU, ING1 / Fold change vs veh, ING1 / RFU, TRMT61B / Fold change vs veh, TRMT61B / RFU, FUBP3 / Fold change vs veh, FUBP3 / RFU, TP53 / Fold change vs veh, TP53 / RFU, TNKS2 / Fold change vs veh, TNKS2 / RFU, ZFP14 / Fold change vs veh, ZFP14 / RFU, ACTR2 / Fold change vs veh, ACTR2 / RFU, PPP3R1 / Fold change vs veh, PPP3R1 / RFU, PIK3R1 / Fold change vs veh, PIK3R1 / RFU, HNRNPA1 / Fold change vs veh, HNRNPA1 / RFU, RNF170 / Fold change vs veh, RNF170 / RFU, ZNF28 / Fold change vs veh, ZNF28 / RFU, RNGTT / Fold change vs veh, RNGTT / RFU, OGT / Fold change vs veh, OGT / RFU, BRD1 / Fold change vs veh, BRD1 / RFU, MARS / Fold change vs veh, MARS / RFU, ZNF655 / Fold change vs veh, ZNF655 / RFU, FAHD1 / Fold change vs veh, FAHD1 / RFU, BDP1 / Fold change vs veh, BDP1 / RFU, LRRCC1 / Fold change vs veh, LRRCC1 / RFU, ARID1A / Fold change vs veh, ARID1A / RFU, ZNF146 / Fold change vs veh, ZNF146 / RFU, ZNF330 / Fold change vs veh, ZNF330 / RFU, GPN3 / Fold change vs veh, GPN3 / RFU, C9orf123 / Fold change vs veh, C9orf123 / RFU, N4BP2L2 / Fold change vs veh, N4BP2L2 / RFU, ARFIP1 / Fold change vs veh, ARFIP1 / RFU, FAM179B / Fold change vs veh, FAM179B / RFU, BCL10 / Fold change vs veh, BCL10 / RFU, UHRF1BP1L / Fold change vs veh, UHRF1BP1L / RFU, BET1 / Fold change vs veh, BET1 / RFU, CNOT2 / Fold change vs veh, CNOT2 / RFU, ZNF268 / Fold change vs veh, ZNF268 / Fold change vs veh, ZNF507 / RFU, DGCR2 / Fold change vs veh, DGCR2 / RFU, WDSUB1 / Fold change vs veh, WDSUB1 / Fold change vs veh, HSP90B1 /// MIR3652 / RFU, ADSS / Fold change vs veh, ADSS / RFU, GK / Fold change vs veh, GK / RFU, ZNF148 / Fold change vs veh, ZNF148 / RFU, TAF9 / Fold change vs veh, TAF9 / RFU, SLC1A5 / Fold change vs veh, SLC1A5 / RFU, SLMO2 / Fold change vs veh, SLMO2 / RFU, ABCC4 / Fold change vs veh, ABCC4 / RFU, LOC101060439 /// RAP1B / Fold change vs veh, LOC101060439 /// RAP1B / RFU, RFX7 / Fold change vs veh, RFX7 / RFU, GTPBP10 / Fold change vs veh, GTPBP10 / RFU, CNEP1R1 / Fold change vs veh, CNEP1R1 / RFU, BIVM-ERCC5 /// ERCC5 / Fold change vs veh, BIVM-ERCC5 /// ERCC5 / RFU, ILF3 / Fold change vs veh, ILF3 / RFU 11762660_at / Fold change /veh 11762660_at / RFU VCAN (11757783_s_at) / Fold change /veh VCAN (11757783_s_at) / RFU DDX43 (11728927_at) / Fold change /veh DDX43 (11728927_at) / RFU KRT8 (11758188_x_at) / Fold change /veh KRT8 (11758188_x_at) / RFU NKD1 (11759106_at) / Fold change /veh NKD1 (11759106_at) / RFU SRD5A1 (11742802_a_at) / Fold change /veh SRD5A1 (11742802_a_at) / RFU TPSAB1 /// TPSB2 (11721975_s_at) / Fold change /veh TPSAB1 /// TPSB2 (11721975_s_at) / RFU GSTM3 (11746129_a_at) / Fold change /veh GSTM3 (11746129_a_at) / RFU IL23R (11737362_x_at) / Fold change /veh IL23R (11737362_x_at) / RFU TMEM51 (11727254_a_at) / Fold change /veh TMEM51 (11727254_a_at) / RFU PIWIL2 (11732686_x_at) / Fold change /veh PIWIL2 (11732686_x_at) / RFU ORM1 (11744905_x_at) / Fold change /veh ORM1 (11744905_x_at) / RFU CCDC152 (11743942_at) / Fold change /veh CCDC152 (11743942_at) / RFU ECM1 (11717891_a_at) / Fold change /veh ECM1 (11717891_a_at) / RFU IL23R (11748794_a_at) / Fold change /veh IL23R (11748794_a_at) / RFU TNFAIP8L3 (11732012_x_at) / Fold change /veh TNFAIP8L3 (11732012_x_at) / RFU MBOAT4 (11741988_at) / Fold change /veh MBOAT4 (11741988_at) / RFU 11764193_at / Fold change /veh 11764193_at / RFU TMEM53 (11763286_at) / Fold change /veh TMEM53 (11763286_at) / RFU MAGEB2 (11727129_at) / Fold change /veh MAGEB2 (11727129_at) / RFU TMEM200A (11744735_a_at) / Fold change /veh TMEM200A (11744735_a_at) / RFU CCDC152 (11751479_a_at) / Fold change /veh CCDC152 (11751479_a_at) / RFU FAM211A (11726209_a_at) / Fold change /veh FAM211A (11726209_a_at) / RFU RGS16 (11746705_a_at) / Fold change /veh RGS16 (11746705_a_at) / RFU VCAN (11755009_s_at) / Fold change /veh VCAN (11755009_s_at) / RFU RHOB (11743442_s_at) / Fold change /veh RHOB (11743442_s_at) / RFU RGS16 (11720943_a_at) / Fold change /veh RGS16 (11720943_a_at) / RFU RGS16 (11720944_at) / Fold change /veh RGS16 (11720944_at) / RFU, VPS4B / Fold change vs veh, VPS4B / RFU, CREB1 / Fold change vs veh, CREB1 / RFU, DNAJC13 / Fold change vs veh, DNAJC13 / RFU, GNAQ / Fold change vs veh, GNAQ / RFU, CDK5R1 / Fold change vs veh, CDK5R1 / RFU, ZRANB3 / Fold change vs veh, ZRANB3 / RFU, CUL4A / Fold change vs veh, CUL4A / RFU, CCNY / Fold change vs veh, CCNY / RFU, UFL1 / Fold change vs veh, UFL1 / RFU, COG3 / Fold change vs veh, COG3 / RFU, DIAPH2 / Fold change vs veh, DIAPH2 / RFU, SKA2 / Fold change vs veh, SKA2 / RFU, AFF3 / Fold change vs veh, AFF3 / RFU, LMF1 / Fold change vs veh, LMF1 / RFU, IPO11 / Fold change vs veh, IPO11 / RFU, DFFB / Fold change vs veh, DFFB / RFU, FOXP1 / Fold change vs veh, FOXP1 / RFU, CARD8 / Fold change vs veh, CARD8 / RFU, STRN3 / Fold change vs veh, STRN3 / RFU, ADK / Fold change vs veh, ADK / RFU, RASSF2 / Fold change vs veh, RASSF2 / RFU, WIPF1 / Fold change vs veh, WIPF1 / RFU, LARP1B / Fold change vs veh, LARP1B / RFU, RASA1 / Fold change vs veh, RASA1 / RFU, RB1 / Fold change vs veh, RB1 / RFU, PPFIA1 / Fold change vs veh, PPFIA1 / RFU, MAT2A / Fold change vs veh, MAT2A / RFU, CCT5 / Fold change vs veh, CCT5 / RFU, WDR92 / Fold change vs veh, WDR92 / RFU, CUX1 / Fold change vs veh, CUX1 / RFU, TTC7A / Fold change vs veh, TTC7A / RFU, TMEM135 / Fold change vs veh, TMEM135 / RFU, DEPTOR / Fold change vs veh, DEPTOR / RFU, CPM / Fold change vs veh, CPM / RFU, DNAJB6 / Fold change vs veh, DNAJB6 / RFU, CACNA2D3 / Fold change vs veh, CACNA2D3 / RFU, DTX4 / Fold change vs veh, DTX4 / RFU, TFCP2 / Fold change vs veh, TFCP2 / RFU, GMCL1 /// GMCL1P1 / Fold change vs veh, GMCL1 /// GMCL1P1 / RFU, AEBP2 / Fold change vs veh, AEBP2 / RFU, SNHG1 /// SNORD22 /// SNORD25 /// SNORD26 /// SNORD27 /// SNORD28 /// SNORD29 /// SNORD31 / Fold change vs veh, SNHG1 /// SNORD22 /// SNORD25 /// SNORD26 /// SNORD27 /// SNORD28 /// SNORD29 /// SNORD31 / Fold change (Aza/veh), C12orf56 (ProbeSet 11735607_a_at) / Fold change (ACY-1035/veh), C12orf56 (ProbeSet 11735607_a_at) / Fold change (Aza/veh), FGFR1OP (ProbeSet 11751329_s_at) / Fold change (ACY-1035/veh), FGFR1OP (ProbeSet 11751329_s_at) / Fold change (Aza/veh), VPS36 (ProbeSet 11739960_a_at) / Fold change (ACY-1035/veh), VPS36 (ProbeSet 11739960_a_at) / RFU SYPL1 (11715823_x_at) / Fold change /veh SYPL1 (11715823_x_at) / RFU IGFBP7 (11715501_s_at) / Fold change /veh IGFBP7 (11715501_s_at) / RFU REEP3 (11722064_at) / Fold change /veh REEP3 (11722064_at) / RFU IGLL1 (11728026_x_at) / Fold change /veh IGLL1 (11728026_x_at): dose or concentration left out as unconfirmed. Particulars: MV-4-11 cells, 48 hours.

On to `Nc1ncn([C@@H]2O[C@H](CO)[C@@H](O)[C@H]2O)c(=O)n1` [azacitidine], for which the “Fold change /veh RCAN1 (11760418_a_at)” value came out at 0.93.
